Source: patent US20090239936A1, “Prophylactic and Therapeutic Agent for Cancer” (priority 2006, published 2009)

Legend:
P-glycoprotein = P-glycoprotein expression level by western blotting after drug addition; assay type: cell-based, human
Protocol: In […] HCT-15 cells (obtained from Developmental Therapeutics Program, National Cancer Institute, National Institutes of Health, Bethesda, Md., USA) and […] SW620 cells (obtained from Developmental Therapeutics Program, National Cancer Institute, National Institutes of Health, Bethesda, Md., USA), which expressed P-glycoprotein at a high level, screening of drugs that reduced the expression level of P-glycoprotein was performed by western blotting. […]
Inhibitory effects of MEK inhibitor U0126 on the expression level of P-glycoprotein in HCT-15 and SW620 cells prepared by the same procedure as described in PREPARATION EXAMPLE 1 in which endogenous P-glycoprotein was expressed and in the MCF-7/MDR and MDA-MB-231/MDR cells in which exogenous P-glycoprotein was expressed were monitored with passage of time in a manner similar to EXAMPLE 1. […]
Using MEK inhibitor PD098059 (purchased from Cell Signaling Technology; see English, J. et al. (1999) Exp. Cell Res. 253, 255), which has an action mechanism different from U0126, inhibitory effects of MEK inhibitor PD098059 on the expression level of P-glycoprotein in the HCT-15 and SW620 cells in which endogenous P-glycoprotein was expressed and in the MCF-7/MDR and MDA-MB-231/MDR cells in which exogenous P-glycoprotein was expressed were monitored with passage of time in a manner similar to EXAMPLE 1. […]

BCRP = conditions: U0126 10 μM; human colon cancer (HT-29, KM12), non-small-cell lung cancer (NCI-H460, A549) and ovarian cancer (OVACAR-5) cells; in 12 hours later (FIG. 5)
Protocol: After incubation for 8 hours or 12 hours, each drug was added to the cells followed by further incubation. Thereafter, the BCRP expression level was assessed by western blotting using an anti-BCRP antibody (manufactured by Chemicon International Inc., trade name: BXP-21). The protein of 10 μg each was electrophoresed in each lane. The protein was quantified by Bradford assay (Bio-Rad protein assay dye reagent). More specifically, the incubated cells were recovered with a cell scraper and centrifuged (5,000 rpm×3 mins.) to pellet down. […] While vortexing every 5 minutes, the cell membrane and cytoplasmic fractions were solubilized on ice for 30 minutes in total. Using the supernatant after centrifugation (15,000 rpm×15 mins.) as a sample, the protein was quantified.

MDR1 mRNA = conditions: U0126 10 μM
SW620-14 cells = experiment: cell growth inhibition test, SW620-14; assay type: cell-based; conditions: Homo sapiens, 120 h, read-out: IC50 concentration (50% growth inhibitory concentration), 5 days
Protocol: (§1) The cells were plated in 12-well plates (manufactured by IWAKI GLASS Co. […] Subsequently, the drug diluted in the medium to different concentrations was added in a volume of 1 ml per well. The plates were placed in a 5% carbon dioxide gas incubator and incubation was performed at 37° C. for 5 days. Five days after, the cells were rinsed with phosphate buffer and detached with 0.5 ml of trypsin-EDTA. The cells were then suspended in 1 ml of the medium. The cell suspension in each well was added into a beaker containing 9 ml of […] diluent (TOA Medical Electronics Co., Ltd.), and the number of cells was counted with a Sysmex CDA-500 automated cell counter (TOA Medical Electronics Co., Ltd.).

HCT-15 cells = experiment: cell growth inhibition test, HCT-15; assay type: cell-based; conditions: Homo sapiens, 120 h, read-out: IC50 concentration (50% growth inhibitory concentration), 5 days
Protocol: as §1

MDA-MB-231/MDR cells = experiment: cell growth inhibition test, MDA-MB-231/MDR; assay type: cell-based; conditions: Homo sapiens, 120 h, read-out: IC50 concentration (50% growth inhibitory concentration), 5 days
Protocol: as §1

MCF-7/MDR cells = experiment: cell growth inhibition test, MCF-7/MDR; assay type: cell-based; conditions: Homo sapiens, MCF7, 120 h, read-out: IC50 concentration (50% growth inhibitory concentration), 5 days
Protocol: as §1

## O=c1cc(N2CCOCC2)oc2c(-c3ccccc3)cccc12 [LY294002, 2-(4-morpholinyl)-8-phenyl-1(4H)-benzopyran-4-one]
P-glycoprotein; HCT-15 cells and SW620 cells, endogenous P-glycoprotein, western blotting (FIG. 1)
  P-glycoprotein expression level: not down-regulated

## N#CC(=C(N)Sc1ccccc1N)C(C#N)=C(N)Sc1ccccc1N [U0126, 1,4-diamino-2,3-dicyano-1,4-bis[2-aminophenylthio]butadiene]
BCRP
  expression level of BCRP: reduced
MDR1 mRNA
  expression level of MDR1 mRNA: Any change was not observed
P-glycoprotein; U0126 10 μM, MCF-7/MDR and MDA-MB-231/MDR cells (exogenous P-glycoprotein), in 8 to 12 hours (FIG. 2)
  expression level of P-glycoprotein: ≤ 10 % of control

## CC(=O)O[C@H]1C(=O)[C@@]2(C)[C@H]([C@H](OC(=O)c3ccccc3)[C@]3(O)C[C@H](OC(=O)[C@H](O)[C@@H](NC(=O)c4ccccc4)c4ccccc4)C(C)=C1C3(C)C)[C@]1(OC(C)=O)CO[C@@H]1C[C@@H]2O [paclitaxel]
SW620-14 cells
  IC50: 5 nM
HCT-15 cells
  IC50: 100 nM
MDA-MB-231/MDR cells
  IC50: 800 nM
MCF-7/MDR cells
  IC50: 4 nM
